Source: PMC8746705, “Comparison of Experimental Strategies to Study L-Type Amino Acid Transporter 1 (LAT1) Utilization by Ligands” (Molecules, 2021)

How the values were obtained:
LAT1 [1] = target: T1, LAT1 (Mus musculus, UniProt Q9Z127); assay: Cis-inhibition of radiolabelled LAT1-probe substrate uptake into BV2 cells; assay type: cell-based; conditions: for Inhibition of LAT1-probe substrate uptake / LAT1 affinity: over all probe substrates; for IC50: 5 min, mean ± SD
Outline: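 Mouse BV2 cells preincubated 10 min at 37 °C in choline-based HBSS pH 7.4, then 5 min uptake of [14C]-L-leucine (0.2 µCi/mL) or [3H]-methionine, -tryptophan or -kynurenine (2 µCi/mL) with 0.1–1000 μM compound. Cell radioactivity counted by liquid scintillation after lysis. IC50 by nonlinear regression.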

LAT1 [2] = target: T1, LAT1; assay: Inhibition type of [14C]-L-Leu uptake (Hanes-Woolf plots) in BV2 cells; assay type: cell-based; conditions: for Vmax of [14C]-L-Leu uptake: 0.010–0.20 µM [14C]-L-Leu in the presence of the compound at its IC50, mean ± SD, n = 3–4; for Vmax of [14C]-L-Leu uptake / Inhibition Type: BV2; for IC50: Table 2, compound concentration used in the inhibition type study, corresponding to IC50 of [14C]-L-Leu uptake; for Inhibition Type: of [14C]-L-Leu uptake, concluded from Km and Vmax
Outline: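 BV2 cells preincubated 10 min at 37 °C in Na+-free choline HBSS (pH 7.4), then exposed to 0.010–0.20 μM [14C]-L-leucine plus compound at IC50-guided concentration; uptake counted by liquid scintillation. Km and Vmax derived by linear regression of Hanes-Woolf plots ([S]/v vs substrate).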

[3] = tested on: immortalized mouse microglia (BV2); assay: Time-dependent cellular uptake of compounds into BV2 cells (LC-MS/MS); assay type: cell-based; conditions: for Max. cellular uptake: 100 µM compound, 1–60 min, mean ± SD, n = 3
Outline: (§1)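 BV2 cells were incubated with 100 μM compound in HBSS at 37 °C for 1–60 min, washed ice-cold and lysed in 0.1 M NaOH. Intracellular compound was quantified by positive-mode ESI LC-MS/MS against internal-standard calibration curves and normalised to Bradford protein content.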

[4] = as above; assay type: cell-based, mouse; conditions: mouse, BV2 microglia cells, 100 µM compound, 1–60 min, mean ± SD, n = 3, read-out: T½ of cellular uptake
Outline: as §1

LAT1 [5] = target: T1, LAT1; assay: Concentration-dependent cellular uptake into BV2 cells, Eadie–Hofstee analysis, Transport Type 1 (LAT1); assay type: cell-based; conditions: for Km / Transport Type 1 (LAT1) Vmax: 1–200 µM, 30 min, BV2, Eadie–Hofstee, mean ± SD, n = 3; for Cellular uptake: BV2 cells
Outline: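 Mouse BV2 microglia incubated 30 min at 37 °C in HBSS with compounds at 1–200 μM. Intracellular compound quantified by LC-MS/MS (positive ESI, C18 column) and normalized to total protein. Transport components resolved from Michaelis-Menten kinetics by Eadie–Hofstee analysis.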

[6] = tested on: immortalized mouse microglia (BV2 cells); assay: Cellular viability (resazurin / Alamar blue); assay type: cell-based; conditions: 72 h
Procedure: Immortalized microglia (BV2 cells) were seeded at the density of 10 × 10^3 cells/well onto collagen-coated 96-well plates. The cells were used for the proliferation experiments one day after seeding. The studied compounds (50 and 100 µM) were added into the growth medium and incubated for 3 days (the medium was replaced with a fresh one with studied compounds after daily measurements). Each day the cell viability was determined by the resazurin cell proliferation kit (MilliporeSigma, St. Louis, MO, USA), which is directly proportional to aerobic respiration and cellular metabolism of cells. The samples were measured fluorometrically by monitoring the increase in fluorescence at λex 560 nm and λem 590 nm with the Envision plate reader (EnVision, Perkin Elmer, Inc., Waltham, MA, USA). The cell viability was also followed by visualizing the wells with microscopy. The ability of compounds to inhibit the viability of the cells was expressed as percentages (%) compared to the untreated controls.

[7] = probe [3H]-L-Kynu, n = 3–4, read-out: IC50 of [3H]-L-Kynu uptake
[8] = probe [3H]-L-Met, n = 3–4, read-out: IC50 of [3H]-L-Met uptake
[9] = probe [3H]-L-Trp, n = 3–4, read-out: IC50 of [3H]-L-Trp uptake
[10] = probe [14C]-L-Leu, n = 3–4, read-out: IC50 of [14C]-L-Leu uptake
[11] = higher concentrations (>100 µM)

T1 sequence (Q9Z127 whole entry): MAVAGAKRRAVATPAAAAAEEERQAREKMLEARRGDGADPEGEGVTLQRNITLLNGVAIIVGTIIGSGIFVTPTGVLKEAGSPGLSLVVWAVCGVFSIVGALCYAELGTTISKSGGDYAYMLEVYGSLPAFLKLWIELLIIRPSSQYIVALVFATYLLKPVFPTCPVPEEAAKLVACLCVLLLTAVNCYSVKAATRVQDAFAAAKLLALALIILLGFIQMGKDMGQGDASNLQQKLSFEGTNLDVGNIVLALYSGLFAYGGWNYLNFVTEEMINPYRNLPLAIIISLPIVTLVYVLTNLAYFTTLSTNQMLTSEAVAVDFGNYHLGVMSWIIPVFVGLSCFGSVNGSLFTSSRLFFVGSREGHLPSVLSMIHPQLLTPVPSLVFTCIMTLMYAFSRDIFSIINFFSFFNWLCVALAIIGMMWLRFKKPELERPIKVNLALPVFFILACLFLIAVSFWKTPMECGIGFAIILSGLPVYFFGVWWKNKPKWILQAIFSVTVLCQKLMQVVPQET
T1 sequence (P10852 whole entry partner): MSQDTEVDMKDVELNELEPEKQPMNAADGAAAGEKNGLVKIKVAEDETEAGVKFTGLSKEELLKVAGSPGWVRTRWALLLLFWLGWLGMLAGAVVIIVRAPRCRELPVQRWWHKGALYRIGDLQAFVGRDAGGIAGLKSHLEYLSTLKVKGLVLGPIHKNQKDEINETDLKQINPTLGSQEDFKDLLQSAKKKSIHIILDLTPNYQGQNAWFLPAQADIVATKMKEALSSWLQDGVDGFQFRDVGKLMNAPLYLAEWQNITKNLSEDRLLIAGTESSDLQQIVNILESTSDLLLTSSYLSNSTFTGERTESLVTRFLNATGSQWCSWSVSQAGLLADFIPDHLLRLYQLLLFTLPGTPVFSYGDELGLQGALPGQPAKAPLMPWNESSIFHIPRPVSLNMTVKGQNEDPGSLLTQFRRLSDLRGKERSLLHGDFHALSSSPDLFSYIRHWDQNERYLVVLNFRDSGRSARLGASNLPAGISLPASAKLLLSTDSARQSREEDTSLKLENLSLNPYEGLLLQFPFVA

## N[C@@H](Cc1cccc(NC(=O)c2ccccc2O)c1)C(=O)O [Compound 8]
LAT1 [1]
  Inhibition of LAT1-probe substrate uptake / LAT1 affinity: not able to inhibit the LAT1-probe substrate uptake very effectively
LAT1 [1]; [7]
  IC50: 18.1 ± 1.2 µM
LAT1 [1]; [8]
  IC50: 12 ± 1.4 µM
LAT1 [1]; [9]
  IC50: 24.5 ± 2 µM
LAT1 [2]
  Vmax of [14C]-L-Leu uptake: 1.644 ± 0.073 nmol/min/mg
  IC50: 19 µM
  Inhibition Type: Un-competitive
[3]
  Max. cellular uptake: 8.05 ± 0.40 nmol/mg of protein
[4]
  half-life at 100 μM: 2.65 ± 0.6 min

## COc1cc(C=CC(=O)NCc2cccc(CC(N)C(=O)O)c2)ccc1O (stereo not drawn) [Compound 5]
LAT1 [1]
  Inhibition of LAT1-probe substrate uptake / LAT1 affinity: not able to inhibit the LAT1-probe substrate uptake very effectively
LAT1 [1]; [7]
  IC50: 43.3 ± 1.1 µM
LAT1 [1]; [8]
  IC50: > 100 µM
LAT1 [1]; [9]
  IC50: > 100 µM
LAT1 [1]; [10]
  IC50: > 100 µM
LAT1 [5]
  Km: 2.1 ± 0.4 µM
  Transport Type 1 (LAT1) Vmax: 0.11 ± 0.01 pmol/mg/min
LAT1 [2]
  Vmax of [14C]-L-Leu uptake: 1.910 ± 0.057 nmol/min/mg
  Inhibition Type: Un-competitive
[3]
  Max. cellular uptake: cannot be calculated
[3]; concluded from time-dependent uptake, 100 µM
  LAT1-substrate or LAT1-binder: LAT1-binders rather than substrates
[4]
  half-life at 100 μM: < 1 min

## COc1cc(/C=C/C(=O)Oc2cccc(C[C@H](N)C(=O)O)c2)ccc1O [Compound 7]
LAT1 [1]; [7]
  IC50: 96.8 ± 1.2 µM
LAT1 [1]; [8]
  IC50: 13.6 ± 1.8 µM
LAT1 [1]; [9]
  IC50: 19.8 ± 1.3 µM
LAT1 [1]; [10]
  IC50: 37.6 ± 1.8 µM
LAT1 [5]
  Km: 0.3 ± 0.1 µM
  Transport Type 1 (LAT1) Vmax: 0.09 ± 0.03 pmol/mg/min
LAT1 [2]
  Vmax of [14C]-L-Leu uptake: 2.780 ± 0.126 nmol/min/mg
  IC50: 38 µM
  Inhibition Type: Mixed type
[3]
  Max. cellular uptake: 21.14 ± 2.93 nmol/mg of protein
[4]
  half-life at 100 μM: 7.35 ± 3.44 min

## COc1ccc2cc([C@H](C)C(=O)Oc3cccc(C[C@H](N)C(=O)O)c3)ccc2c1 [Compound 15]
LAT1 [1]; [7]
  IC50: 3.1 ± 1.3 µM
LAT1 [1]; [8]
  IC50: 25.3 ± 1.6 µM
LAT1 [1]; [9]
  IC50: 11.1 ± 1.2 µM
[6]; 50 µM
  Effect on cell viability: minor effects on cell viability
[6]; [11]
  Effect on cell viability: started to impact the cell viability
LAT1 [5]
  Km: 9.3 ± 2.7 µM
  Transport Type 1 (LAT1) Vmax: 280 ± 65 pmol/mg/min
  Cellular uptake: highest cellular uptake
LAT1 [2]
  Vmax of [14C]-L-Leu uptake: 1.448 ± 0.099 nmol/min/mg
  IC50: 10 µM
  Inhibition Type: Non-competitive
[3]
  Max. cellular uptake: 29.09 ± 2.84 nmol/mg of protein
[4]
  half-life at 100 μM: 12.5 ± 3.62 min

## C[C@H](C(=O)Nc1cccc(C[C@H](N)C(=O)O)c1)c1cccc(C(=O)c2ccccc2)c1 [Compound 2]
LAT1 [1]; [7]
  IC50: 4.3 ± 1.3 µM
LAT1 [1]; [8]
  IC50: 3.3 ± 1.5 µM
LAT1 [1]; [9]
  IC50: 9.9 ± 1.3 µM
LAT1 [1]; [10]
  IC50: 2.8 ± 1.5 µM
[6]; [11]
  Effect on cell viability: started to impact the cell viability
LAT1 [5]
  Km: 0.8 ± 0.1 µM
  Transport Type 1 (LAT1) Vmax: 0.09 ± 0.01 pmol/mg/min
LAT1 [2]
  Vmax of [14C]-L-Leu uptake: 2.759 ± 0.066 nmol/min/mg
  IC50: 3 µM
  Inhibition Type: Mixed type
[3]
  Max. cellular uptake: 22.31 ± 1.34 nmol/mg of protein
[4]
  half-life at 100 μM: 1.97 ± 0.66 min

## C[C@H](C(=O)Oc1cccc(C[C@H](N)C(=O)O)c1)c1cccc(C(=O)c2ccccc2)c1 [Compound 4]
LAT1 [1]; [7]
  IC50: 35.3 ± 1.2 µM
LAT1 [1]; [8]
  IC50: 26.1 ± 1.4 µM
LAT1 [1]; [9]
  IC50: 38.8 ± 3.1 µM
LAT1 [1]; [10]
  IC50: 15 ± 1.3 µM
[6]; [11]
  Effect on cell viability: started to impact the cell viability
LAT1 [5]
  Km: 41 ± 6 µM
  Transport Type 1 (LAT1) Vmax: 88 ± 9 pmol/mg/min
  Cellular uptake: effectively transported into the cells
LAT1 [2]
  Vmax of [14C]-L-Leu uptake: 1.599 ± 0.170 nmol/min/mg
  IC50: 15 µM
  Inhibition Type: Non-competitive
[3]
  Max. cellular uptake: 4.17 ± 0.19 nmol/mg of protein
[4]
  half-life at 100 μM: 1.86 ± 0.42 min

## NC(Cc1cccc(C(=O)Oc2ccc(-c3ccc(-c4ccc5c(c4)COC5=O)s3)cc2)c1)C(=O)O (stereo not drawn) [Compound 1]
LAT1 [1]; [7]
  IC50: 0.7 ± 0.1 µM
LAT1 [1]; [8]
  IC50: 8.2 ± 1.7 µM
LAT1 [1]; [9]
  IC50: 6.7 ± 1.6 µM
LAT1 [1]; [10]
  IC50: 6.8 ± 1.4 µM
[6]; [11]
  Effect on cell viability: started to impact the cell viability
LAT1 [5]
  Km: 116 ± 72 µM
  Transport Type 1 (LAT1) Vmax: 750 ± 435 pmol/mg/min
  Cellular uptake: highest cellular uptake
LAT1 [2]
  Vmax of [14C]-L-Leu uptake: 1.792 ± 0.106 nmol/min/mg
  IC50: 7 µM
  Inhibition Type: Mixed type
[3]
  Max. cellular uptake: 176.0 ± 9.0 nmol/mg of protein
[4]
  half-life at 100 μM: 9.11 ± 1.52 min

## C[C@H](C(=O)Nc1cccc(C[C@H](N)C(=O)O)c1)c1ccc(-c2ccccc2)c(F)c1 [Compound 9]
LAT1 [1]; [7]
  IC50: 4.7 ± 1.2 µM
LAT1 [1]; [8]
  IC50: 1.7 ± 1.8 µM
LAT1 [1]; [9]
  IC50: 15.9 ± 7.8 µM
[6]; 50 µM
  Effect on cell viability: minor effects on cell viability
LAT1 [2]
  Vmax of [14C]-L-Leu uptake: 2.422 ± 0.061 nmol/min/mg
  IC50: 6 µM
  Inhibition Type: Non-competitive
[3]
  Max. cellular uptake: 101.6 ± 86.1 nmol/mg of protein
[4]
  half-life at 100 μM: > 300 min

## C[C@H](C(=O)Oc1cccc(C[C@H](N)C(=O)O)c1)c1ccc(-c2ccccc2)c(F)c1 [Compound 12]
LAT1 [1]; [7]
  IC50: 3 ± 1.5 µM
LAT1 [1]; [8]
  IC50: 4.3 ± 1.7 µM
LAT1 [1]; [9]
  IC50: 6.3 ± 1.3 µM
[6]; 50 µM
  Effect on cell viability: minor effects on cell viability
[6]; [11]
  Effect on cell viability: started to impact the cell viability
LAT1 [2]
  Vmax of [14C]-L-Leu uptake: 1.513 ± 0.218 nmol/min/mg
  IC50: 4 µM
  Inhibition Type: Mixed type
[3]
  Max. cellular uptake: 36.12 ± 4.17 nmol/mg of protein
[4]
  half-life at 100 μM: 19.2 ± 5.71 min
